Reference: ChEMBL document CHEMBL4507291 (2021)

What was measured:
[1] = biological target: Neuropeptide Y receptor type 2 (Homo sapiens) (UniProt P49146); test: Inhibition of Neuropeptide Y Y2 at 10 µM in the Eurofins-Panlabs radioligand binding assay (Eurofins_assay_257110); conditions: Compound concentration 10.0 uM
[2] = biological target: Substance-P receptor (Homo sapiens) (UniProt P25103); test: Inhibition of Tachykinin NK1 at 10 µM in the Eurofins-Panlabs radioligand binding assay (Eurofins_assay_255520); set-up: ligand concentration 0.8 nM; conditions: Compound concentration 10.0 uM
[3] = biological target: Prostaglandin G/H synthase 1 (Homo sapiens) (UniProt P23219); test: Inhibition of Cyclooxygenase COX-1 at compound concentration of 10.0 uM in the Eurofins-Panlabs enzyme assay (Eurofins_assay_116020); conditions: Compound concentration 10.0 uM
[4] = biological target: T1, Activin receptor type-1B (Homo sapiens) (UniProt P36896); test: ACVR1B (ALK4) Kinase screen; conditions: Compound concentration 1.0 uM
T1 sequence (whole entry): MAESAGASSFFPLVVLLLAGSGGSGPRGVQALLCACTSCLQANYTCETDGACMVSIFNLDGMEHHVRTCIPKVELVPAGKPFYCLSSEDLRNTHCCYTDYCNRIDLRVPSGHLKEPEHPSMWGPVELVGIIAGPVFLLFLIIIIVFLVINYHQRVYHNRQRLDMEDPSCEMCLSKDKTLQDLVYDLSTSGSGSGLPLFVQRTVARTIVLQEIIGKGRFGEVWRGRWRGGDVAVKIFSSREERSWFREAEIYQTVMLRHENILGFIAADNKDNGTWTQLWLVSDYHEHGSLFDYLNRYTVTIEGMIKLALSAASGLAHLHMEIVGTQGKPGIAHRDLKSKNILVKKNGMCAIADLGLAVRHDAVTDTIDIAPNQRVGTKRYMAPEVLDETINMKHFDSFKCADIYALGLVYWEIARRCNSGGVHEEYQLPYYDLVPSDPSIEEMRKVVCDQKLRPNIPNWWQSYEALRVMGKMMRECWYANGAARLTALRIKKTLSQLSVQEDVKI

[5] = biological target: RAC-beta serine/threonine-protein kinase (Homo sapiens) (UniProt P31751); test: AKT2 (PKB beta) Kinase screen; conditions: Compound concentration 1.0 uM
[6] = biological target: RAC-gamma serine/threonine-protein kinase (Homo sapiens) (UniProt Q9Y243); test: AKT3 (PKB gamma) Kinase screen; conditions: Compound concentration 1.0 uM
[7] = biological target: Casein kinase I isoform gamma-2 (Homo sapiens) (UniProt P78368); test: CSNK1G2 (CK1 gamma 2) Kinase screen; conditions: Compound concentration 1.0 uM
[8] = biological target: G protein-coupled receptor kinase 4 (Homo sapiens) (UniProt P32298); test: GRK4 Kinase screen; conditions: Compound concentration 1.0 uM
[9] = biological target: T2, Tyrosine-protein kinase JAK3 (Homo sapiens) (UniProt P52333); test: JAK3 Kinase screen; conditions: Compound concentration 1.0 uM
T2 sequence (whole entry): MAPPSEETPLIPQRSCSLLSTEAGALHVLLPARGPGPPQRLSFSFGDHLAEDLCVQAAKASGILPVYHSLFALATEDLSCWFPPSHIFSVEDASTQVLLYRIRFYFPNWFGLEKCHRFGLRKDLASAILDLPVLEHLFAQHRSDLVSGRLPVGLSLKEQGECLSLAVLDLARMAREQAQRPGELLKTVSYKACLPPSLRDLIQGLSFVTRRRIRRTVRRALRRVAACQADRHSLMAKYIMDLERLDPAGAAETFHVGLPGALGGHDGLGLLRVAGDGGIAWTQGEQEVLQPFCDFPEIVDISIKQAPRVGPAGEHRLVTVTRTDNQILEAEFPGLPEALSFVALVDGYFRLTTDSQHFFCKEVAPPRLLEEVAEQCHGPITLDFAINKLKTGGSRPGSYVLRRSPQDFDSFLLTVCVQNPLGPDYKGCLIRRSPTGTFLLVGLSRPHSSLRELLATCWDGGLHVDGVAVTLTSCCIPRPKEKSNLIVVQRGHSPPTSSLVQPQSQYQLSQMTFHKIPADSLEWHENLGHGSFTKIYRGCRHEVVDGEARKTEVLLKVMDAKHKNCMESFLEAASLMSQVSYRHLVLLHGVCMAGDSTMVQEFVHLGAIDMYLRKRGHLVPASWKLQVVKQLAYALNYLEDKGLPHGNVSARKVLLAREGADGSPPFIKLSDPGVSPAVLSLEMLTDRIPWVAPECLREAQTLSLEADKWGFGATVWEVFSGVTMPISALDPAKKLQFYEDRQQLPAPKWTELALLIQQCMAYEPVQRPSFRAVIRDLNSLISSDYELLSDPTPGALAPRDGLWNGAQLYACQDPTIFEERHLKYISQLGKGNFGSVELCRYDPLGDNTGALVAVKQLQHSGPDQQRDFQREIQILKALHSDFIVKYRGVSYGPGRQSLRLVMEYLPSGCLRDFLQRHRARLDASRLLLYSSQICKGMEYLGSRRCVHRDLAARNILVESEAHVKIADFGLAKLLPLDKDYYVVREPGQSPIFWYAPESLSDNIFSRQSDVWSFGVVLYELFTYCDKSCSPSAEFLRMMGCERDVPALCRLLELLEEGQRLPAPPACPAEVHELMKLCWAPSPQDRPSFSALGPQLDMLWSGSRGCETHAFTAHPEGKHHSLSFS

[10] = biological target: Mitogen-activated protein kinase kinase kinase 8 (Homo sapiens) (UniProt P41279); test: MAP3K8 (COT) Kinase screen; conditions: Compound concentration 1.0 uM
[11] = biological target: MAP kinase-activated protein kinase 2 (Homo sapiens) (UniProt P49137); test: MAPKAPK2 Kinase screen; conditions: Compound concentration 1.0 uM
[12] = biological target: MAP kinase-activated protein kinase 3 (Homo sapiens) (UniProt Q16644); test: MAPKAPK3 Kinase screen; conditions: Compound concentration 1.0 uM
[13] = organism: Homo sapiens; test: Glutamate, Metabotropic, mGlu5 Eurofins-Panlabs radioligand binding assay; conditions: Compound concentration 10.0 uM
[14] = biological target: T3, Muscarinic acetylcholine receptor M1 (Homo sapiens) (UniProt P11229); conditions: Compound concentration 10.0 uM
T3 sequence (whole entry): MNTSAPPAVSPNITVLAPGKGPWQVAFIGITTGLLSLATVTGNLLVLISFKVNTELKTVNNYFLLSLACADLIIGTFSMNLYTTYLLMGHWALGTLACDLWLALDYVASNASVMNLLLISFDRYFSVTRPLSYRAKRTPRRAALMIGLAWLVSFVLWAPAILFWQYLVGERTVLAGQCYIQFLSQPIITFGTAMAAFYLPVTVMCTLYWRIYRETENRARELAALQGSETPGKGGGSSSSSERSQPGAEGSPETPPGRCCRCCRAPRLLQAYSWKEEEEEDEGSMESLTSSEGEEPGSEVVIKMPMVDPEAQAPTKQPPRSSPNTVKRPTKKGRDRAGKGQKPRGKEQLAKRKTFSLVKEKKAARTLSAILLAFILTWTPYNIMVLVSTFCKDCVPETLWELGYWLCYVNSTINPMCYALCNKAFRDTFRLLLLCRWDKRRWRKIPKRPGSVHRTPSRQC

[15] = biological target: Sodium-dependent noradrenaline transporter (Homo sapiens, UniProt P23975)
[16] = biological target: Leucine-rich repeat serine/threonine-protein kinase 2 (Homo sapiens, UniProt Q5S007); test: LRRK2 Biochemical Assay
Sequence of Leucine-rich repeat serine/threonine-protein kinase 2 (Q5S007 whole entry): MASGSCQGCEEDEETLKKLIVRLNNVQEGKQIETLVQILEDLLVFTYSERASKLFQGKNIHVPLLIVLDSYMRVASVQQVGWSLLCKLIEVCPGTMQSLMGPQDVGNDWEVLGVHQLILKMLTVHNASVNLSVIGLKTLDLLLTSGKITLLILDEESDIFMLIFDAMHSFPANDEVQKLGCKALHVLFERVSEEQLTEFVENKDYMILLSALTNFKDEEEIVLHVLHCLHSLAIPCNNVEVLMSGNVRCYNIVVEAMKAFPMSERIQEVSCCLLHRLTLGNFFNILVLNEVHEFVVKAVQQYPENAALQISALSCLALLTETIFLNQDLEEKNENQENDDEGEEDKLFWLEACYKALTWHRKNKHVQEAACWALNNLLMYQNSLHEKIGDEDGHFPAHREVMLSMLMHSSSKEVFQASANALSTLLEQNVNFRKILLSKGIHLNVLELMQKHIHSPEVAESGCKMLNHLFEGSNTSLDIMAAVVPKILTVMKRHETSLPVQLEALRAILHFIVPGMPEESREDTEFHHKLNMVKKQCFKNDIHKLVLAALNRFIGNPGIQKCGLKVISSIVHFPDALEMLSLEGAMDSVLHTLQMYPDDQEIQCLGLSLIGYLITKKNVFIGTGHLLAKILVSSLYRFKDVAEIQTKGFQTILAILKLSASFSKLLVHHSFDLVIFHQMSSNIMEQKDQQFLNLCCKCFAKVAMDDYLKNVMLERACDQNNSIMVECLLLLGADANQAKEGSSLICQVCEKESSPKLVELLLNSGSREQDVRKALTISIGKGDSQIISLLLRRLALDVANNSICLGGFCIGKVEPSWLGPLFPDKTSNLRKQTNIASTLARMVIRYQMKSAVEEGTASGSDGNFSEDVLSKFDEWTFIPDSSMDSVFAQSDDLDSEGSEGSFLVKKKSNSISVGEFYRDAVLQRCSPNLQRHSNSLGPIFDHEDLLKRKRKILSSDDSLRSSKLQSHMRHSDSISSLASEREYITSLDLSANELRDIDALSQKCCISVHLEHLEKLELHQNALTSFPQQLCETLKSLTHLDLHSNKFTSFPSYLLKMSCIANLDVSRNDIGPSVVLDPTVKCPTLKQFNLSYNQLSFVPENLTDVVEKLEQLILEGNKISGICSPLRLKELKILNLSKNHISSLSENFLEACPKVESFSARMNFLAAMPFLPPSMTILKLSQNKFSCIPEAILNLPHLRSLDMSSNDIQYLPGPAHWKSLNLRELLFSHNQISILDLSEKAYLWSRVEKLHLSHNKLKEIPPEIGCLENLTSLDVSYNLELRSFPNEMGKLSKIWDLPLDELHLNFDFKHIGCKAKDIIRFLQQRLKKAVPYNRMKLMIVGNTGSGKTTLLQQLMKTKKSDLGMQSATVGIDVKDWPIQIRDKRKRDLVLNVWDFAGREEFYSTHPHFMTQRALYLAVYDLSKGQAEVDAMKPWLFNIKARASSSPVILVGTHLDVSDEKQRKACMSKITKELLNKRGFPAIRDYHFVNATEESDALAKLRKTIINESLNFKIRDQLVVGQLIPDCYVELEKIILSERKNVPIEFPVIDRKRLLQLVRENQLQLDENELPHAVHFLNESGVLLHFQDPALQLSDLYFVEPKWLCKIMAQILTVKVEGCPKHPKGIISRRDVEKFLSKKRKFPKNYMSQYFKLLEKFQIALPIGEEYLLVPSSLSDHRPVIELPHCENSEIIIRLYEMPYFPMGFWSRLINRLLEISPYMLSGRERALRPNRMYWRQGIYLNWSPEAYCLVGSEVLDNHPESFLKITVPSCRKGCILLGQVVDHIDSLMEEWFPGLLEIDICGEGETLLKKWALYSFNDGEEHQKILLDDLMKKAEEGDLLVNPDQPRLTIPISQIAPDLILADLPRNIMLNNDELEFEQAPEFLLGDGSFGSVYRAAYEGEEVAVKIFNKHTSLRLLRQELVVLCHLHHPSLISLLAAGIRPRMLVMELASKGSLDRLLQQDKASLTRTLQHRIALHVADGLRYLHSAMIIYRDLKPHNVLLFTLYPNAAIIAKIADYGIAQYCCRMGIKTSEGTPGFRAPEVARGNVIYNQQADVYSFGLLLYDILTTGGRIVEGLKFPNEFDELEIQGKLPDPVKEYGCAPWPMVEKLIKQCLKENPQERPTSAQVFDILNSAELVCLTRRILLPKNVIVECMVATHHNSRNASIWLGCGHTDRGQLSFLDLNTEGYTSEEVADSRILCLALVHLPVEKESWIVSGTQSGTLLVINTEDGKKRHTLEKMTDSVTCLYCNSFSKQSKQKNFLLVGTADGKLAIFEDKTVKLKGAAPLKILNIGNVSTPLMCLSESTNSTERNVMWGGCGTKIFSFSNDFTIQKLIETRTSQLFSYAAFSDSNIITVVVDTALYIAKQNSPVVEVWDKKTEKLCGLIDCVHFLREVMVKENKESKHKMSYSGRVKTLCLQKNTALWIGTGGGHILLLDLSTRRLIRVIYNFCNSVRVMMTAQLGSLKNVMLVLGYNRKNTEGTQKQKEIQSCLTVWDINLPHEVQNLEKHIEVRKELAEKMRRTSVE

Sequence of Sodium-dependent noradrenaline transporter (P23975 whole entry): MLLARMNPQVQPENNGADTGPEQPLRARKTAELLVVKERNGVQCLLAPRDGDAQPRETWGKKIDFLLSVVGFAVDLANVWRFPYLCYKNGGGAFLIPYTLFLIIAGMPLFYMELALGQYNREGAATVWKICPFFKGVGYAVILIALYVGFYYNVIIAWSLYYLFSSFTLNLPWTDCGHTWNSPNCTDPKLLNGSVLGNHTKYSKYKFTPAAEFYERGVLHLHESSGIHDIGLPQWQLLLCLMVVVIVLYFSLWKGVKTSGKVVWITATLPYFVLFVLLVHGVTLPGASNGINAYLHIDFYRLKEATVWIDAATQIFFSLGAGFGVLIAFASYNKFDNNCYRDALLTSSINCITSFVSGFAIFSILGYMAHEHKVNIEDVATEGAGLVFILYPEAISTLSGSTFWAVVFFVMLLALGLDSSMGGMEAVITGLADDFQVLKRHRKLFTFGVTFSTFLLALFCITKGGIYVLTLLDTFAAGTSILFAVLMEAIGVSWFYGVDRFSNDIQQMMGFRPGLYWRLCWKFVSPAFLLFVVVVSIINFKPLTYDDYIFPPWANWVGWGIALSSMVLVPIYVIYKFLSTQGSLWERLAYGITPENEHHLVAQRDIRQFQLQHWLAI
Sequence of RAC-beta serine/threonine-protein kinase (Homo sapiens) (P31751 whole entry): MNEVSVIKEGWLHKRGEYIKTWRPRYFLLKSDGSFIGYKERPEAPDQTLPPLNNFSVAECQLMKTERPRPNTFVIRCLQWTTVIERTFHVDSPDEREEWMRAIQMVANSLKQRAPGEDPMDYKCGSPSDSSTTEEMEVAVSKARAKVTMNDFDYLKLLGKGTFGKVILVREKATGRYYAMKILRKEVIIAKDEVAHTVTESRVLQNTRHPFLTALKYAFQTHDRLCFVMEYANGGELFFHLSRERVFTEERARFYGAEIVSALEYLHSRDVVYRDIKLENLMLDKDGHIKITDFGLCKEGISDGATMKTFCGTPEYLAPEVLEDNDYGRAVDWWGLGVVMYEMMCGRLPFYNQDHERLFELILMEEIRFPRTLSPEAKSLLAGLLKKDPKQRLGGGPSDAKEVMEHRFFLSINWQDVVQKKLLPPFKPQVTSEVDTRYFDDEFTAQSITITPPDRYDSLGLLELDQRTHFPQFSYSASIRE
Sequence of G protein-coupled receptor kinase 4 (Homo sapiens) (P32298 whole entry, looked up): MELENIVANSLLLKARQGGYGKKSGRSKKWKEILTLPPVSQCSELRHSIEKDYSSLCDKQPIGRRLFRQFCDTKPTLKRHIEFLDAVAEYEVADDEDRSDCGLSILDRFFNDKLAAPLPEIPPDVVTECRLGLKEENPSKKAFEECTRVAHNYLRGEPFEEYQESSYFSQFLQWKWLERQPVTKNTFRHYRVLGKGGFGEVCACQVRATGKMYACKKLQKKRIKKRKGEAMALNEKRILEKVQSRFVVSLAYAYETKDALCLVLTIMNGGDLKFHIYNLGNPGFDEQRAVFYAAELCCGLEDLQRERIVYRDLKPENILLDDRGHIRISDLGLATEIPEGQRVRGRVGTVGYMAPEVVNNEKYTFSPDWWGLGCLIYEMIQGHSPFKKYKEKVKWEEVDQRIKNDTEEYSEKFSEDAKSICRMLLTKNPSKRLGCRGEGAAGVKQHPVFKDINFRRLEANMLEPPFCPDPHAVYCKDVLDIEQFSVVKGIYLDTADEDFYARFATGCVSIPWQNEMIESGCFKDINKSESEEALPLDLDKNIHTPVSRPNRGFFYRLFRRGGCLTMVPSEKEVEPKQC
Sequence of Casein kinase I isoform gamma-2 (Homo sapiens) (P78368 whole entry, looked up, canonical isoform): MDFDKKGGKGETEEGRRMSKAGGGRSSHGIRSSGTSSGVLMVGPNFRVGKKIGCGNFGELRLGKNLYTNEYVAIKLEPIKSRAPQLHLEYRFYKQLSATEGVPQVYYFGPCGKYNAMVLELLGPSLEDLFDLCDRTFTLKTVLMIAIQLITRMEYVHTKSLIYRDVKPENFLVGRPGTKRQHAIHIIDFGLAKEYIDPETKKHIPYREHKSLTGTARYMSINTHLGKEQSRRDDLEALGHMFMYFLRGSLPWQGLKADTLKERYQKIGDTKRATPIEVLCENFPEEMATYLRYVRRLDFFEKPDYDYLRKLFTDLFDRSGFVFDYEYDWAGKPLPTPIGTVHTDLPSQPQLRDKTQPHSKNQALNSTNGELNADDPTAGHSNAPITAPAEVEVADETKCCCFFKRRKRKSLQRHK
Sequence of Substance-P receptor (Homo sapiens) (P25103 whole entry): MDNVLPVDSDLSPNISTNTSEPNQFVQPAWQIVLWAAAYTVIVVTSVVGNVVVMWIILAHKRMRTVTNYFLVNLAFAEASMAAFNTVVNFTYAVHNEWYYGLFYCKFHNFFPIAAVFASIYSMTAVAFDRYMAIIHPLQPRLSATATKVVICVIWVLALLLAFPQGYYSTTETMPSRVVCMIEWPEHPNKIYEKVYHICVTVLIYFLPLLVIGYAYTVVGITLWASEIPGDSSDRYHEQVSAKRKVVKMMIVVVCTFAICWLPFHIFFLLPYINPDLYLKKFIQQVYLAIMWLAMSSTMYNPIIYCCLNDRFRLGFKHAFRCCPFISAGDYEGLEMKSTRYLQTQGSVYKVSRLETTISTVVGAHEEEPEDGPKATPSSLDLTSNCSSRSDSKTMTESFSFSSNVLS

C[C@@H]1CN(c2cc(-c3n[nH]c4ccc(OC5(C)CC5)cc34)ncn2)C[C@H](C)O1 [MLi-2]
inactive: inhibition [1] 1% | inhibition [2] 22% | inhibition [3] 9% | inhibition [4] -0.724% | inhibition [5] 5.53% | inhibition [6] 7.75% | inhibition [7] 2.4% | inhibition [8] 6.02% | inhibition [9] 7.05% | inhibition [10] 16.3% | inhibition [11] 2.35% | inhibition [12] 3.73% | inhibition [13] 0% | inhibition [14] 12% | inhibition ([15]; Compound concentration 0.01 uM) 6% | inhibition ([15]; Compound concentration 0.1 uM) 8% | inhibition ([15]; Compound concentration 1.0 uM) 15%
active: inhibition ([15]; Compound concentration 10.0 uM) 77%

C[C@@H]1CN(c2cc(-c3nn(C)c4ccc(OC5(C)CC5)cc34)ncn2)C[C@H](C)O1 [MLi-2-NC]
6.48 µM (not active): IC50 [16]
